Experimental data taken from patent US20100168049A1, “COMBINATION OF MONOSACCHARIDES AND ADENOSINE AND USE THEREOF” (L'OREAL, priority 2008, published 2010).

Legend:
[1] = system: dermal fibroblasts of the reconstructed skin; experiment: Proliferation of fibroblasts in whole reconstructed skin (propidium iodide nuclei count); assay type: cell-based, human; conditions: 5 mM; within 48 hours of treatment
Description: Rhamnose was studied on a model of whole reconstructed skin in order to measure its anti-ageing efficacy on the dermal compartment.
Briefly, the model of reconstructed skin used is that described by Bell et al. (Bell E. et al., The reconstitution of living skin, J. Invest. Dermatol., 1983, July; 81): it includes a dermal equivalent on which is reconstructed a multistratified epidermis; the dermal equivalent is manufactured from acid-soluble collagen, culture medium containing serum and normal adult human fibroblasts. After 5 days of shrinkage, this equivalent is inoculated with keratinocytes and then cultured for 6 days in immersion and for 7 days in emersion in order to obtain a multistratified and differentiated epidermis having a horny layer.
The reconstructed skin is treated with 5 mM rhamnose for 2 days and 5 days in the culture medium; after the treatment, the reconstructed skins are included in Tissue Tek in order to produce frozen sections 7 μm thick with a cryostat. […] Three frozen sections are prepared at random on each reconstructed skin; on each section, two microscopic fields (25× objective lens) are analysed by fluorescence microscopy and photographed. The dermal fibroblasts are thus counted for each reconstructed skin on six images in total representing the six microscopic fields considered. […]

[2] = system: keratinocytes (HaCat line); experiment: Proliferation of keratinocytes (Cyquant, Nile red, XTT markers); assay type: cell-based
Method: The keratinocytes (HaCat line) are cultured under two conditions: whole defined culture medium (standard condition) and culture medium deficient in growth factors. This deficient medium gives rise to a controlled delay in cell proliferation. Under these conditions, it is then possible to measure the effects of compounds capable of compensating for the deficiency in growth factors of the culture medium and thus of relaunching the cell multiplication and/or of stimulating cell metabolism.
The keratinocyte proliferation is measured by means of three markers on the same cell population: the level of DNA, which is proportional to the number of cells (Cyquant probe), the level of constituent polar lipids of cell membranes (Nile red probe) and the mitochondrial respiration, which reflects the general cell metabolism (XTT probe).

type I procollagen = experiment: Synthesis of procollagen 1 in reconstructed skin (indirect immunofluorescence); assay type: cell-based, human; conditions: for procollagen 1 synthesis: reconstructed skin
Method: Conventional detection via indirect immunofluorescence of type I procollagen in the dermis of the reconstructed skin was also performed on other series of frozen sections (anti-procoll 1 antibody (MAB 1912 Millipore)+FTIC-coupled conjugate (112-095-068 Jackson Immunoresearch)). In order to obtain bearings within the cutaneous architecture during the microscopic examination of the sections, the cell nuclei of the keratinocytes and fibroblasts are localized by staining them with propidium iodide, as described above. Three frozen sections are prepared at random on each reconstructed skin and on each section, and two microscopic fields (25× objective lens) are analysed by fluorescence microscopy and photographed. The levels of fluorescence proportional to the amount of type I procollagen are compared between the control skin and the skin treated with rhamnose.

SMILES: C[C@H](O)[C@H](O)[C@@H](O)[C@@H](O)C=O [rhamnose, L-rhamnose]
- growth of the dermal fibroblasts [1]: stimulation of growth
- keratinocyte proliferation ([2]; keratinocytes cultured in medium depleted in growth factors): activate keratinocyte proliferation
- number of cells compared with an untreated control ([2]; medium depleted in growth factor): higher number of cells
- green fluorescence (proportional to the amount of type I procollagen) vs control skin (type I procollagen; 1 mM, 120 hours): marked increase
- synthesis of type I procollagen by the fibroblasts (type I procollagen; 1 mM, 120 hours): greatly stimulated
- procollagen 1 synthesis (type I procollagen; 1 mM): stimulation of procollagen 1 synthesis
- procollagen 1 synthesis (type I procollagen; 5 mM): stimulation of procollagen 1 synthesis
